Where two headings read alike, the source gives them in different places.
How the values were obtained:
HCV genotype 1b replicon = assay: HCV replicon assay, genotype 1b replicon EC50; type: cell-based, Hepatitis C virus; details: HCV replicon, genotype 1b, read-out: EC50 [gt-1b]
In short: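 Compound dilution series incubated 24-48 h, G418 absent, with HCV genotype 1b replicon cell lines kept under G418 selection beforehand. Luciferase signal or replicon RNA, by ^32P hybridization/protection or TaqMan normalized to cyclophilin A, was measured after washing and lysis. Four-parameter fitting against DMSO control gave EC50.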

[1] = biological target: HCV NS3/4A protease genotype 1b (Hepatitis C virus genotype 1b, UniProt P26663); assay: HCV NS3/4A protease time-resolved fluorescence (TRF) assay, Ki against genotype 1b; type: biochemical; details: IC50 [gt-1b], NS3/4A protease TRF assay, genotype 1b enzyme 0.2 nM
In short: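 Time-resolved fluorescence readout of NS3/4A cleavage of 25 nM europium-labelled peptide over 2.5 h at room temperature, enzyme levels set for signal/background 10–30 (0.2, 0.4, 0.025 nM for 1b, A156T, 3a). Ki by IC50=Ki(1+[S]/KM).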

SMILES	EC50 (HCV genotype 1b replicon; Hepatitis C virus) [nM]	IC50 [1] [nM]	EC50 (HCV genotype 1b replicon; Hepatitis C virus, K+ salt) [nM]	IC50 ([1]; K+ salt) [nM]	EC50 (HCV genotype 1b replicon; K+ salt) [nM]
COc1ccc2nc(C)c3c(c2c1)[C@H](F)C[C@]1(C[C@H]2C(=O)N[C@]4(C(=O)NS(=O)(=O)C5(C)CC5)C[C@H]4/C=C\CCCCC[C@H](NC(=O)OC(C)C(C)(C)C)C(=O)N2C1)O3 (stereo partly drawn) [Example 404, 3,3-dimethylbutan-2-yl [(l′R,2S,6S,12Z,13aS,14aR,16aS)-1′-fluoro-9′-methoxy-5′-methyl-14a-{[(1-methylcyclopropyl)sulfonyl]carbamoyl}-5,16-dioxo-1,1′,2′,5,6,7,8,9,10,11,13a,14,14a,15,16,16a-hexadecahydrospiro[cyclopropa[e]pyrrolo[1,2-a][1,4]diazacyclopentadecine-2,3′-pyrano[2,3-c]quinolin]-6-yl]carbamate]	1.23	0.018			
Cc1nc2ccc(F)cc2c2c1O[C@]1(CC2)C[C@H]2C(=O)N[C@]3(C(=O)NS(=O)(=O)C4(C)CC4)C[C@H]3/C=C\CCCCC[C@H](NC(=O)OC(C)(C)C(F)(F)F)C(=O)N2C1 [Example 405, 1,1,1-trifluoro-2-methylpropan-2-yl [(2R,6S,12Z,13aS,14aR,16aS)-9′-fluoro-5′-methyl-14a-{[(1-methylcyclopropyl)sulfonyl]carbamoyl}-5,16-dioxo-1,1′,2′,5,6,7,8,9,10,11,13a,14,14a,15,16,16a-hexadecahydrospiro[cyclopropa[e]pyrrolo[1,2-a][1,4]diazacyclopentadecine-2,3′-pyrano[2,3-c]quinolin]-6-yl]carbamate]	0.813	0.021			
Cc1nc2ccc(F)cc2c2c1O[C@]1(CC2)C[C@H]2C(=O)N[C@]3(C(=O)NS(=O)(=O)C4(C)CC4)C[C@H]3/C=C\CCCCC[C@H](NC(=O)OCC(C)(C)C)C(=O)N2C1 [Example 406, 2,2-dimethylpropyl [(2R,6S,12Z,13aS,14aR,16aS)-9′-fluoro-5′-methyl-14a-{[(1-methylcyclopropyl)sulfonyl]carbamoyl}-5,16-dioxo-1,1′,2′,5,6,7,8,9,10,11,13a,14,14a,15,16,16a-hexadecahydrospiro[cyclopropa[e]pyrrolo[1,2-a][1,4]diazacyclopentadecine-2,3′-pyrano[2,3-c]quinolin]-6-yl]carbamate]	1	0.013			
COc1ccc2nc(C)c3c(c2c1)CC[C@]1(C[C@H]2C(=O)N[C@]4(C(=O)NS(=O)(=O)C5(C)CC5)C[C@H]4/C=C\CCCCC[C@H](NC(=O)OC(C(C)C)C(F)(F)F)C(=O)N2C1)O3 (stereo partly drawn) [Example 407, 1,1,1-trifluoro-3-methylbutan-2-yl [(2R,6S,12Z,13aS,14aR,16aS)-9′-methoxy-5′-methyl-14a-{[(1-methylcyclopropyl)sulfonyl]carbamoyl}-5,16-dioxo-1,1′,2′,5,6,7,8,9,10,11,13a,14,14a,15,16,16a-hexadecahydrospiro[cyclopropa[e]pyrrolo[1,2-a][1,4]diazacyclopentadecine-2,3′-pyrano[2,3-c]quinolin]-6-yl]carbamate]			1.5	0.019	
COc1ccc2nc(C)c3c(c2c1)CC[C@]1(C[C@H]2C(=O)N[C@]4(C(=O)NS(=O)(=O)C5(C)CC5)C[C@H]4/C=C\CCCCC[C@H](NC(=O)OC(C(C)C)C(F)(F)F)C(=O)N2C1)O3 (stereo partly drawn) [Example 408, 1,1,1-trifluoro-3-methylbutan-2-yl [(2R,6S,12Z,13aS,14aR,16aS)-9′-methoxy-5′-methyl-14a-{[(1-methylcyclopropyl)sulfonyl]carbamoyl}-5,16-dioxo-1,1′,2′,5,6,7,8,9,10,11,13a,14,14a,15,16,16a-hexadecahydrospiro[cyclopropa[e]pyrrolo[1,2-a][1,4]diazacyclopentadecine-2,3′-pyrano[2,3-c]quinolin]-6-yl]carbamate]				0.023	1.23
COCCOc1ccc2nc(C)c3c(c2c1)CC[C@]1(C[C@H]2C(=O)N[C@]4(C(=O)NS(=O)(=O)C5(C)CC5)C[C@H]4/C=C\CCCCC[C@H](NC(=O)OC(C)(C)C)C(=O)N2C1)O3 [Example 409, tert-butyl [(2R,6S,12Z,13aS,14aR,16aS)-9′-(2-methoxyethoxy)-5′-methyl-14a-{[(1-methylcyclopropyl)sulfonyl]carbamoyl}-5,16-dioxo-1,1′,2′,5,6,7,8,9,10,11,13a,14,14a,15,16,16a-hexadecahydrospiro[cyclopropa[e]pyrrolo[1,2-a][1,4]diazacyclopentadecine-2,3′-pyrano[2,3-c]quinolin]-6-yl]carbamate]	4.73	0.02			
COCCOc1ccc2nc(C)c3c(c2c1)CC[C@]1(C[C@H]2C(=O)N[C@]4(C(=O)NS(=O)(=O)C5(C)CC5)C[C@H]4/C=C\CCCCC[C@H](NC(=O)OCC(C)(C)C)C(=O)N2C1)O3 [Example 410, 2,2-dimethylpropyl [(2R,6S,12Z,13aS,14aR,16aS)-9′-(2-methoxyethoxy)-5′-methyl-14a-{[(1-methylcyclopropyl)sulfonyl]carbamoyl}-5,16-dioxo-1,1′,2′,5,6,7,8,9,10,11,13a,14,14a,15,16,16a-hexadecahydrospiro[cyclopropa[e]pyrrolo[1,2-a][1,4]diazacyclopentadecine-2,3′-pyrano[2,3-c]quinolin]-6-yl]carbamate]	3.1	0.011			
COCCOc1ccc2nc(C)c3c(c2c1)CC[C@]1(C[C@H]2C(=O)N[C@]4(C(=O)NS(=O)(=O)C5(C)CC5)C[C@H]4/C=C\CCCCC[C@H](NC(=O)OCC(C)C)C(=O)N2C1)O3 [Example 411, 2-methylpropyl [(2R,6S,12Z,13aS,14aR,16aS)-9′-(2-methoxyethoxy)-5′-methyl-14a-{[(1-methylcyclopropyl)sulfonyl]carbamoyl}-5,16-dioxo-1,1′,2′,5,6,7,8,9,10,11,13a,14,14a,15,16,16a-hexadecahydrospiro[cyclopropa[e]pyrrolo[1,2-a][1,4]diazacyclopentadecine-2,3′-pyrano[2,3-c]quinolin]-6-yl]carbamate]	5.77	0.064			
COc1ccc2nc(C3CC3)c3c(c2c1)CC[C@]1(C[C@H]2C(=O)N[C@]4(C(=O)NS(=O)(=O)C5(C)CC5)C[C@H]4/C=C\CCCCC[C@H](NC(=O)O[C@@H](C)C(C)C)C(=O)N2C1)O3 [Example 412, (2S)-3-methylbutan-2-yl [(2R,6S,12Z,13aS,14aR,16aS)-5′-cyclopropyl-9′-methoxy-14a-{[(1-methylcyclopropyl)sulfonyl]carbamoyl}-5,16-dioxo-1,1′,2′,5,6,7,8,9,10,11,13a,14,14a,15,16,16a-hexadecahydrospiro[cyclopropa[e]pyrrolo[1,2-a][1,4]diazacyclopentadecine-2,3′-pyrano[2,3-c]quinolin]-6-yl]carbamate]			1.42	0.038	
COc1ccc2nc(C3CC3)c3c(c2c1)CC[C@]1(C[C@H]2C(=O)N[C@]4(C(=O)NS(=O)(=O)C5(C)CC5)C[C@H]4/C=C\CCCCC[C@H](NC(=O)O[C@H](C)C(C)C)C(=O)N2C1)O3 [Example 413, (2R)-3-methylbutan-2-yl [(2R,6S,12Z,13aS,14aR,16aS)-5′-cyclopropyl-9′-methoxy-14a-{[(1-methylcyclopropyl)sulfonyl]carbamoyl}-5,16-dioxo-1,1′,2′,5,6,7,8,9,10,11,13a,14,14a,15,16,16a-hexadecahydrospiro[cyclopropa[e]pyrrolo[1,2-a][1,4]diazacyclopentadecine-2,3′-pyrano[2,3-c]quinolin]-6-yl]carbamate]			2.53	0.021	
Cc1nc2ccccc2c2c1O[C@]1(CC2)C[C@H]2C(=O)N[C@]3(C(=O)NS(=O)(=O)C4(C)CC4)C[C@H]3/C=C\CCCCC[C@H](Nc3cc(C(F)(F)F)ccn3)C(=O)N2C1 [Example 414, (2R,6S,12Z,13aS,14aR,16aS)-5′-methyl-N-[(1-methylcyclopropyl)sulfonyl]-5,16-dioxo-6-{[4-(trifluoromethyl)pyridin-2-yl]amino}-1,1′,2′,6,7,8,9,10,11,13a,14,15,16,16a-tetradecahydrospiro[cyclopropa[e]pyrrolo[1,2-a][1,4]diazacyclopentadecine-2,3′-pyrano[2,3-c]quinoline]-14a(5H)-carboxamide]	5.16	0.047			
COc1cccc(N[C@H]2CCCCC/C=C\[C@@H]3C[C@@]3(C(=O)NS(=O)(=O)C3(C)CC3)NC(=O)[C@@H]3C[C@]4(CCc5c(c(C)nc6ccccc56)O4)CN3C2=O)n1 [Example 415, (2R,6S,12Z,13aS,14aR,16aS)-6-[(6-methoxypyridin-2-yl)amino]-5′-methyl-N-[(1-methylcyclopropyl)sulfonyl]-5,16-dioxo-1,1′,2′,6,7,8,9,10,11,13a,14,15,16,16a-tetradecahydrospiro[cyclopropa[e]pyrrolo[1,2-a][1,4]diazacyclopentadecine-2,3′-pyrano[2,3-c]quinoline]-14a(5H)-carboxamide]	16.3	0.118			
Cc1ccc2nc(C(F)(F)F)c3c(c2c1)CC[C@]1(C[C@H]2C(=O)N[C@]4(C(=O)NS(=O)(=O)C5(C)CC5)C[C@H]4/C=C\CCCCC[C@H](NC(=O)OCCN4CCCC4)C(=O)N2C1)O3 [Example 416, 2-(pyrrolidin-1-yl)ethyl [(2R,6S,12Z,13aS,14aR,16aS)-9′-methyl-14a-{[(1-methylcyclopropyl)sulfonyl]carbamoyl}-5,16-dioxo-5′-(trifluoromethyl)-1,1′,2′,5,6,7,8,9,10,11,13a,14,14a,15,16,16a-hexadecahydrospiro[cyclopropa[e]pyrrolo[1,2-a][1,4]diazacyclopentadecine-2,3′-pyrano[2,3-c]quinolin]-6-yl]carbamate]	272	0.164			
